Converted amounts (≈) assume the structure as drawn.
System: Mycobacterium tuberculosis variant bovis
Experiment: Antimycobacterial activity against Mycobacterium bovis BCG assessed as inhibition of bacterial growth incubated for 4 days by alamar blue assay
Assay type: functional
Conditions: 96 h, time 4 day

CCCC[C@H](CN(O)C=O)C(=O)N1CCC[C@H]1C(=O)Nc1ccccn1
MIC: 0.2 µg/mL (≈ 0.552 µM)

Reference: ChEMBL document CHEMBL5143637, “Design, synthesis and antibacterial activity against pathogenic mycobacteria of conjugated hydroxamic acids, hydrazides and O-alkyl/O-acyl protected hydroxamic derivatives” (Bioorg Med Chem Lett, 2022)
